Experimental data: PMC11478287, “Design and Synthesis of Pyridyl and 2-Hydroxyphenyl Chalcones with Antitubercular Activity” (Molecules, 2024)
Entries after “also recorded” stand apart in the source; their conditions may differ. Like-named read-outs stand apart in the source and are kept apart here.

What was measured:
[1] = MCF-10A MTT cytotoxicity screening; type: cell-based; details: human, MCF-10A normal breast (mammary epithelial) cells, quadruplicate, read-out: Cytotoxicity MCF10A normal breast cells IC50
Experimental: (§1) The cytotoxicity of compounds towards eukaryotic cells was determined using human liver cells (HepG2), non-tumorigenic human mammary epithelial cells (MCF-10A), and breast cancer cells (MDA-MB-468).
(§2) Cells were purchased from the American Type Culture Collection (Manassas, VA, USA). MDA-468 cells were grown in RPMI-1640 medium with 10% (v/v) heat-inactivated foetal calf serum and L-glutamine (2 mM) without phenol red. MCF-10A cells were grown in Dulbecco’s modified Eagle’s medium/ Ham’s F-12 medium (1:1) with 5% (v/v) heat-inactivated foetal calf serum, epidermal growth factor (20 ng/mL), insulin (10 µg/mL), and hydrocortisone (500 ng/mL). Cells were maintained at 37 °C, 5% CO2 / 95% air with 100% humidity and passaged every 2–3 days using trypsin EDTA solution (0.25% w/v). Adhered cells at sub confluence were harvested for experimental use. The medium was aspirated and discarded, and trypsin-EDTA solution (1% w/v, 1 mL) was added to the cells. After 30 s this was aspirated and immediately replaced by a further 1 mL of trypsin-EDTA solution. The cells were incubated at 37 °C for approximately 5 min or until the cells were visibly non-adherent. The resultant cell suspension was placed in a 25 mL sterile universal container with 10 mL of fresh medium followed by centrifugation (3 min, 3000 rpm, and 4 °C). Old medium was aspirated and replaced with 10 mL of fresh medium. To determine the density of cells in suspension, an aliquot (100 µL) was added to a trypan-blue solution (0.4% w/v, 100 µL), and the number of viable cells were determined using a Neubauer haemocytometer. The cell suspension was diluted with relevant medium to give a cell count of 2 × 10^3 cells per mL. Aliquots (100 µL) were dispensed into sterile 96-well microtitre flat-bottomed plates. For the MDA-468 and MCF-10A cell lines the plates were incubated at 37 °C, 5% CO2/95% air with 100% humidity for 24 h prior to the addition of test compounds. Test compounds were added within 30 min into the wells from a 100 mM stock solution in DMSO and serially diluted to give final concentrations of […], 0.01, 0.003, 0.001, and 0.0003 µM. […] The cells were allowed to grow for 96 h at 5%, CO2, 37 °C to give 80–90% confluence in the control wells, after which 50 µL of MTT (3-[4,5 dimethylthiazol-2-yl]-2,5-diphenyl tetrazolium bromide, 2 mg mL^−1) in sterile phosphate buffer was added to each well and the plates were further incubated for 2 h. All medium was aspirated, and the formazan precipitate generated by viable cells was solubilised by 150 µL of DMSO. All the plates were vortexed, and the absorbance at 540 nm was determined using a Molecular Devices SpectraMax M5 plate reader. Results were expressed as a percentage of the control value versus the negative logarithm of the molar drug concentration range using Graph Pad Prism. Relative toxicities of each compound within each cell line were expressed as 50% of growth inhibition (IC50). All determinations were carried out in quadruplicate.

[2] = MDA-468 MTT cytotoxicity screening; type: cell-based; details: human, MDA-MB-468 (MDA468) breast cancer cells, quadruplicate
Experimental: as §1, §2

[3] = tested on: Mycobacterium tuberculosis H37Rv; assay: microbe, parasite or virus in culture; type: cell-based; details: for IC90: read-out: Anti-tubercular activity M. tuberculosis (H37Rv) IC90; for IC50: SD in brackets, read-out: Anti-tubercular activity M. tuberculosis (H37Rv) IC50 (SD)
[4] = tested on: MDA468 breast cancer cells; design: method as in PMID 29332599; details: previously reported value ref 12; read-out: Cytotoxicity MDA468 breast cancer cells IC50; cited from earlier work
[5] = HepG2 cytotoxicity screening (CellTiter-Glo); type: cell-based; details: human, HepG2 cells; 50% decrease in viable cells after 72 h
Experimental: as §1
HepG2 cells were incubated with compounds for 72 h in medium containing either glucose or galactose, and cell viability was measured. The IC50 was determined as the concentration of compound causing a 50% decrease in viable cells after 72 h. Compounds were prepared as 10-point three-fold serial dilutions in DMSO. The highest concentration of compound tested was 100 µM where compounds were soluble in DMSO at 10 mM. […] HepG2 cells were cultured in complete DMEM (recipe: DMEM medium, 1X penicillin-streptomycin solution, 2 mM Corning Glutogro supplement, 1 mM sodium pyruvate, 10% v/v Fetal Bovine Serum), inoculated into 384-well assay plates and incubated for 24 h at 37 °C, 5% CO2. Compounds were added and cells were cultured for a further 72 h. The final DMSO concentration was 1%. Cell viability was determined using the CellTiter-Glo® Luminescent Cell Viability Assay (Promega, Madison, WI, USA) and measuring relative luminescent units (RLU). The dose-response curve was fitted using the Levenberg–Marquardt algorithm. The IC50 was defined as the compound concentration that produced a 50% decrease in viable cells. Each run included staurosporine as a control.

[6] = Mycobacterium tuberculosis, H37RV, 120 h, 5-day incubation, […]

`COc1ccc(/C=C\c2cc(OC)c(OC)c(OC)c2)cc1O` [Combretastatin A-4, reference compound] gave an IC50 at 96 h [1] of 0.0016 µM and an IC50 at 96 h [2] of 0.003 µM.
In the case of `COc1cc(C(=O)/C=C/c2ccc3c(c2)OCO3)cc(OC)c1OC` [Compound 2], the “Anti-tubercular activity (in words)” value [3] is reported as “did not exhibit anti-tubercular activity; also recorded: no antitubercular activity”, the IC90 ([3]; Mycobacterium tuberculosis, H37RV, 120 h) is reported as > 100 µM and the IC50 at 96 h [1] is reported as 2.3 µM. The IC50 [4] was 0.006 µM.
`O=C(/C=C/c1cccnc1)c1ccc(Cl)c(Cl)c1` [Compound 14, (E)-1-(3,4-dichlorophenyl)-3-(pyridin-3-yl)prop-2-en-1-one] gave an IC50 at 72 h [5] of 2.5 µM, an IC90 [3, 6] of 28 µM and an IC50 [3, 6] of 12 µM.
With `O=C(/C=C/c1cccnc1)c1ccc(Cl)cc1` [Compound 15, (E)-1-(4-chlorophenyl)-3-(pyridin-3-yl)prop-2-en-1-one] the IC50 at 72 h [5] was 11 µM, the IC90 [3, 6] was 77 µM and the IC50 [3, 6] was 24 µM.
Compound `COc1cc(C(=O)/C=C/c2cccnc2)cc(OC)c1OC` [Compound 16, (E)-3-(pyridin-3-yl)-1-(3,4,5-trimethoxyphenyl)prop-2-en-1-one] has an IC50 at 72 h [5] of 2 µM, an IC90 [3, 6] of 59 µM and an IC50 [3, 6] of 19 µM. It also gave an IC50 at 96 h [1] of 1.5 µM and an IC50 at 96 h [2] of 0.7 µM.
In the case of `O=C(/C=C/c1cccnc1)c1ccc(O)cc1` [Compound 17], the IC50 at 72 h [5] is reported as > 100 µM, the “Anti-tubercular activity (in words)” value ([3]; M. tuberculosis H37Rv) is reported as “abolished” and the IC90 [3, 6] is reported as > 100 µM. For the same compound, the IC50 [3, 6] was > 100 µM, the IC50 at 96 h [1] was > 100 µM and the IC50 at 96 h [2] was 30 µM.
In the case of `O=C(/C=C/c1cccnc1)c1ccccc1O` [Compound 18, (E)-1-(2-hydroxyphenyl)-3-(pyridin-3-yl)prop-2-en-1-one], the IC50 at 72 h [5] is reported as 22 µM, the “Anti-tubercular activity (in words)” value ([3]; M. tuberculosis H37Rv) is reported as “abolished” and the IC90 [3, 6] is reported as > 100 µM. The IC50 [3, 6] was > 100 µM, the IC50 at 96 h [1] was 16 µM and the IC50 at 96 h [2] was 8 µM.
`O=C(/C=C/c1cccnc1)c1c2ccccc2cc2ccccc12` [Compound 19] gave an IC50 at 72 h [5] of 2.7 µM, an IC90 [3, 6] of 48 µM and an IC50 [3, 6] of 10 µM. For the same compound, the IC50 at 96 h [1] was 4.4 µM and the IC50 at 96 h [2] was 0.3 µM.
With `O=C(/C=C/c1cccnc1)c1ccc2ccc3cccc4ccc1c2c34` [Compound 20, (E)-1-(pyren-1-yl)-3-(pyridin-3-yl)prop-2-en-1-one] the IC50 at 72 h [5] was 1.8 µM, the IC90 [3, 6] was 22 µM and the IC50 [3, 6] was 8.8 µM. The IC50 at 96 h [1] was 2 µM and the IC50 at 96 h [2] was 4 µM.
`O=C(/C=C/c1cccnc1)c1ccc(-c2ccccc2)cc1` [Compound 21, (E)-1-([1,1′-biphenyl]-4-yl)-3-(pyridin-3-yl)prop-2-en-1-one] gave an IC50 at 72 h [5] of 4.5 µM, an IC90 [3, 6] of 8.9 µM and an IC50 [3, 6] of 3.9 µM. It also gave an IC50 at 96 h [1] of 7 µM and an IC50 at 96 h [2] of 3.5 µM.
For `COc1ccccc1C(=O)/C=C/c1ccc(Br)cc1` [Compound 22], the IC50 at 72 h [5] was 13 µM, the IC90 [3, 6] was 59 µM and the IC50 [3, 6] was 44.5 µM.
For `O=C(/C=C/c1ccc(Cl)cc1)c1ccccc1O` [Compound 23, (E)-3-(4-chlorophenyl)-1-(2-hydroxyphenyl)prop-2-en-1-one], the IC50 at 72 h [5] was 25 µM, the IC90 ([3]; 5-day incubation, […]) was > 100 µM and the IC90 [3, 6] was 97 to 100 µM.
With `O=C(/C=C/c1ccc(Br)cc1)c1ccccc1O` [Compound 24, (E)-3-(4-bromophenyl)-1-(2-hydroxyphenyl)prop-2-en-1-one] the IC50 at 72 h [5] was 14 µM, the IC90 [3, 6] was 97 µM and the IC50 [3, 6] was > 100 µM.
In the case of `COc1cccc(C(=O)/C=C/c2ccc(Br)cc2)c1` [Compound 25, (E)-3-(4-bromophenyl)-1-(3-methoxyphenyl)prop-2-en-1-one], the IC50 at 72 h [5] is reported as 14 µM, the IC90 [3, 6] is reported as 28 µM and the IC50 [3, 6] is reported as 22 µM.
With `COc1cccc(C(=O)/C=C/c2ccc(Cl)cc2)c1` [Compound 26, (E)-3-(4-chlorophenyl)-1-(3-methoxyphenyl)prop-2-en-1-one] the IC50 at 72 h [5] was 13 µM, the IC90 ([3]; 5-day incubation, […]) was 28 µM and the IC90 [3, 6] was ≥ 28 µM. The IC50 [3, 6] was 20 µM.
For `O=C(/C=C/c1cn(-c2ccccc2)nc1-c1ccccc1)c1ccccc1O` [Compound 27, (E)-3-(1,3-diphenyl-1H-pyrazol-4-yl)-1-(2-hydroxyphenyl)prop-2-en-1-one], the IC50 at 72 h [5] was 74 µM, the IC90 ([3]; 5-day incubation, […]) was > 100 µM and the IC90 [3, 6] was 97 to 100 µM. For the same compound, the IC50 [3, 6] was > 100 µM.
Compound `O=C(/C=C/c1cccc(Br)c1)c1cccnc1` [Compound 28, (E)-3-(3-bromophenyl)-1-(pyridin-3-yl)prop-2-en-1-one] has an IC90 [3, 6] of 65 µM, an IC50 at 96 h [1] of 5.2 µM and an IC50 at 96 h [2] of 0.7 µM.
With `Oc1ccccc1C1=NNC(c2cn(-c3ccccc3)nc2-c2ccccc2)C1` (stereo not drawn) [Compound 29, 2-(1′,3′-diphenyl-3,4-dihydro-1′H,2H-[3,4′-bipyrazol]-5-yl)phenol] the IC50 at 72 h [5] was 46.5 µM, the “Fold more active than parent compound 27 (IC50 H37Rv)” value ([3]; 29 versus 27) was 10 fold and the IC90 [3, 6] was > 25 µM. For the same compound, the IC50 [3, 6] was 11 µM.
`Oc1ccccc1C1=NNC(c2ccc(Cl)cc2)C1` (stereo not drawn) [Compound 30, 2-(5-(4-chlorophenyl)-4,5-dihydro-1H-pyrazol-3-yl)phenol] gave an IC50 at 72 h [5] of 19.5 µM and an IC50 [3, 6] of 23 µM.
Work on `Oc1ccccc1C1=NNC(c2ccc(Br)cc2)C1` (stereo not drawn) [Compound 31, 2-(5-(4-bromophenyl)-4,5-dihydro-1H-pyrazol-3-yl)phenol] yielded an IC50 at 72 h [5] of 24.5 µM, an IC90 [3, 6] of 34 µM and an IC50 [3, 6] of 23 µM.
For `CO[C@H]1/C=C/O[C@@]2(C)Oc3c(C)c(O)c4c(O)c(c(/C=N/N5CCN(C)CC5)c(O)c4c3C2=O)NC(=O)/C(C)=C\C=C\[C@H](C)[C@H](O)[C@@H](C)[C@@H](O)[C@@H](C)[C@H](OC(C)=O)[C@@H]1C` [Rifampicin, reference compound], the IC90 [3, 6] was 0.0087 µM and the IC50 [3, 6] was 0.0044 µM.
